Source: paper PMC7753147, “High-throughput determination of protein affinities using unmodified peptide libraries in nanomolar scale” (iScience, 2020)

Assays:
native geph = test: µSPOT peptide microarray binding assay with native geph from mouse brain lysate
gephE = test: µSPOT peptide microarray binding assay with recombinant gephE
FL-geph = test: µSPOT peptide microarray binding assay with full-length geph
[1] = µSPOT full positional scan of GlyRβ 15-mer DLRSNDFSIVGSLPR, native geph, intensity normalised to wild-type sequence (= 1)
[2] = µSPOT full positional scan of GlyRβ 15-mer DLRSNDFSIVGSLPR, intensity normalised to wild-type sequence (= 1)

| Sequence | Native geph Binding Intensity [norm.] (native geph; [1]) | gephE Binding Intensity [norm.] (gephE; [2]) | Fl-geph Binding Intensity [norm.] (FL-geph; [2]) | Native geph Binding Intensity [norm.] (native geph; µSPOT peptide microarray, GlyRβ full positional scan, native geph from mouse brain lysate, intensity normalised to wild-type sequence DLRSNDFSIVGSLPR (=1)) | gephE Binding Intensity [norm.] (gephE; µSPOT peptide microarray, GlyRβ full positional scan, recombinant gephE, intensity normalised to wild-type sequence DLRSNDFSIVGSLPR (=1)) | Fl-geph Binding Intensity [norm.] (FL-geph; µSPOT peptide microarray, GlyRβ full positional scan, intensity normalised to wild-type sequence DLRSNDFSIVGSLPR (=1)) |
| --- | --- | --- | --- | --- | --- | --- |
| DLRSNDFSIVGSEPR [GlyRβ_Full_Positional_Scan_251] | 0.67 norm. | 0.8 norm. | 1.11 norm. |  |  |  |
| DLRSNDFSIVGSFPR [GlyRβ_Full_Positional_Scan_247] | 0.96 norm. | 0.9 norm. | 1.16 norm. |  |  |  |
| DLRSNDFSIVGSGPR [GlyRβ_Full_Positional_Scan_242] | 0.66 norm. | 0.69 norm. | 0.91 norm. |  |  |  |
| DLRSNDFSIVGSKPR [GlyRβ_Full_Positional_Scan_254] | 0.24 norm. | 0.59 norm. | 0.68 norm. |  |  |  |
| DLRSNDFSIVGSLCR [GlyRβ_Full_Positional_Scan_277] | 0.36 norm. | 0.62 norm. | 0.67 norm. |  |  |  |
| DLRSNDFSIVGSLDR [GlyRβ_Full_Positional_Scan_270] | 0.4 norm. | 0.58 norm. | 0.82 norm. |  |  |  |
| DLRSNDFSIVGSLER [GlyRβ_Full_Positional_Scan_271] | 0.28 norm. | 0.32 norm. | 0.75 norm. |  |  |  |
| DLRSNDFSIVGSLGR [GlyRβ_Full_Positional_Scan_262] | 0.44 norm. | 0.6 norm. | 0.82 norm. |  |  |  |
| DLRSNDFSIVGSLHR [GlyRβ_Full_Positional_Scan_273] | 0.55 norm. | 0.62 norm. | 1.08 norm. |  |  |  |
| DLRSNDFSIVGSLKR [GlyRβ_Full_Positional_Scan_274] | 0.21 norm. | 0.58 norm. | 1.01 norm. |  |  |  |
| DLRSNDFSIVGSLLR [GlyRβ_Full_Positional_Scan_264] | 0.32 norm. | 0.66 norm. | 0.74 norm. |  |  |  |
| DLRSNDFSIVGSLMR [GlyRβ_Full_Positional_Scan_278] | 0.44 norm. | 0.6 norm. | 0.77 norm. |  |  |  |
| DLRSNDFSIVGSLPA [GlyRβ_Full_Positional_Scan_281] | 0.81 norm. | 0.87 norm. | 0.9 norm. |  |  |  |
| DLRSNDFSIVGSLPC [GlyRβ_Full_Positional_Scan_297] | 0.97 norm. | 0.83 norm. | 1.04 norm. |  |  |  |
| DLRSNDFSIVGSLPD [GlyRβ_Full_Positional_Scan_290] | 0.66 norm. | 0.96 norm. | 1.21 norm. |  |  |  |
| DLRSNDFSIVGSLPE [GlyRβ_Full_Positional_Scan_291] | 0.49 norm. | 0.82 norm. | 0.84 norm. |  |  |  |
| DLRSNDFSIVGSLPG [GlyRβ_Full_Positional_Scan_282] | 0.84 norm. | 0.88 norm. | 0.92 norm. |  |  |  |
| DLRSNDFSIVGSLPH [GlyRβ_Full_Positional_Scan_293] | 0.92 norm. | 0.96 norm. | 1.05 norm. |  |  |  |
| DLRSNDFSIVGSLPK [GlyRβ_Full_Positional_Scan_294] | 0.71 norm. | 0.92 norm. | 1.24 norm. |  |  |  |
| DLRSNDFSIVGSLPL [GlyRβ_Full_Positional_Scan_284] | 1.11 norm. | 1.05 norm. | 1.05 norm. |  |  |  |
| DLRSNDFSIVGSLPM [GlyRβ_Full_Positional_Scan_298] | 1.42 norm. | 0.9 norm. | 1.34 norm. |  |  |  |
| DLRSNDFSIVGSLPP [GlyRβ_Full_Positional_Scan_285] | 1.08 norm. | 1.02 norm. | 1.03 norm. |  |  |  |
| DLRSNDFSIVGSLPQ [GlyRβ_Full_Positional_Scan_300] | 1.41 norm. | 1.02 norm. | 1.33 norm. |  |  |  |
| DLRSNDFSIVGSLPR [GlyRβ_Full_Positional_Scan_235] | 1 norm. | 1 norm. | 1 norm. |  |  |  |

Continued, values first:

| Native geph Binding Intensity [norm.] (native geph; [1]) | gephE Binding Intensity [norm.] (gephE; [2]) | Fl-geph Binding Intensity [norm.] (FL-geph; [2]) | Native geph Binding Intensity [norm.] (native geph; µSPOT peptide microarray, GlyRβ full positional scan, native geph from mouse brain lysate, intensity normalised to wild-type sequence DLRSNDFSIVGSLPR (=1)) | gephE Binding Intensity [norm.] (gephE; µSPOT peptide microarray, GlyRβ full positional scan, recombinant gephE, intensity normalised to wild-type sequence DLRSNDFSIVGSLPR (=1)) | Fl-geph Binding Intensity [norm.] (FL-geph; µSPOT peptide microarray, GlyRβ full positional scan, intensity normalised to wild-type sequence DLRSNDFSIVGSLPR (=1)) | Sequence |
| --- | --- | --- | --- | --- | --- | --- |
| 1.16 norm. | 1.08 norm. | 1.02 norm. |  |  |  | DLRSNDFSIVGSHPR [GlyRβ_Full_Positional_Scan_253] |
| 0.93 norm. | 0.94 norm. | 1 norm. |  |  |  | DLRSNDFSIVGSIPR [GlyRβ_Full_Positional_Scan_243] |
| 0.63 norm. | 0.67 norm. | 0.99 norm. |  |  |  | DLRSNDFSIVGSLAR [GlyRβ_Full_Positional_Scan_261] |
| 0.28 norm. | 0.71 norm. | 0.78 norm. |  |  |  | DLRSNDFSIVGSLFR [GlyRβ_Full_Positional_Scan_267] |
| 0.49 norm. | 0.65 norm. | 0.95 norm. |  |  |  | DLRSNDFSIVGSLIR [GlyRβ_Full_Positional_Scan_263] |
| 0.67 norm. | 0.71 norm. | 0.77 norm. |  |  |  | DLRSNDFSIVGSLNR [GlyRβ_Full_Positional_Scan_279] |
| 0.79 norm. | 1.01 norm. | 0.64 norm. |  |  |  | DLRSNDFSIVGSLPF [GlyRβ_Full_Positional_Scan_287] |
| 1.01 norm. | 0.98 norm. | 1.05 norm. |  |  |  | DLRSNDFSIVGSLPI [GlyRβ_Full_Positional_Scan_283] |
| 1.37 norm. | 0.98 norm. | 1.36 norm. |  |  |  | DLRSNDFSIVGSLPN [GlyRβ_Full_Positional_Scan_299] |
|  |  |  | 1 norm. | 1 norm. | 1 norm. | DLRSNDFSIVGSLPR [GlyRβ_Full_Positional_Scan_099] |
| 1.3 norm. | 0.82 norm. | 1.3 norm. |  |  |  | DLRSNDFSIVGSLPS [GlyRβ_Full_Positional_Scan_295] |
